# According to publication PMC9211397, “High-Throughput Screening Platform To Identify Inhibitors of Protein Synthesis with Potential for the Treatment of Malaria” (Antimicrobial Agents and Chemotherapy, 2022):
# Values joined by “and” are separate entries in the source; they are usually repeats but may differ in a detail not shown here. Equal entries are not always repeated. Where two headings read alike, the source gives them in different places.
# What was measured:
# [1] = biological target: P. falciparum translation (P. falciparum lysate); experiment: P. falciparum in vitro translation (PfIVT) assay, lysate-based, luciferase reporter; type: biochemical, Plasmodium falciparum; details: for IC50: 8-point, weighted mean ± SD of two technical replicates, read-out: IC50 value (μM) PfIVT; for PfIVT inhibition at 30 μM (%): single-point screen
# Excerpt: (§1) Our P. falciparum in vitro translation (PfIVT) assay is built upon previously established assays ([14], [17]) and is summarized in Fig. 1A. In this assay, successful reconstitution of Plasmodium protein translation is reported via synthesis of a luciferase reporter. For PfIVT, two independent untranslated regions (UTRs), previously shown to promote strong levels of translation ([17]), were introduced upstream and downstream of the luciferase. The 5′ UTR from P. falciparum histidine-rich protein 3 (PfHrp3) ([18]) was introduced upstream of the reporter gene, and the 3′ UTR from P. falciparum histidine-rich protein 2 (PfHrp2) gene ([19]) was introduced downstream. For the reporter construct to support our complementary human IVT assay (HsIVT), the 5′ UTR was replaced with an internal ribosome entry site (IRES) from encephalomyocarditis virus (EMCV) ([20]) and the 3′ UTR was replaced with a poly(A) tail ([21]). […] Finally, a 30-bp poly(A) tail, present within the vector and downstream of the luciferase gene, was inserted to enhance mRNA stability ([21]).
# (§2) Translationally active P. falciparum or human embryonic kidney (HEK) 293F lysates were supplemented with accessory, helper, amino acid, and energy regeneration solutions (see Materials and Methods for details). In vitro translation reactions were initiated by the addition of purified mRNA to each reaction well. Using this basic assay format, a number of parameters were assessed and optimized, namely, assay temperature, time, mRNA concentration, and reaction volume (summarized in Fig. S2 in the supplemental material). In addition, we compared the luminescence signal of the CBG firefly luciferase with CBG99, derived from the click beetle […] ([18]).
# 3D7 parasites were synchronized following two rounds of treatment with D-sorbitol (5%), as previously described ([40]). The hematocrit was reduced from 5% (for standard culture) to 1.5 to 2% and cultures were transferred into HYPERflasks (Corning). Fresh medium was added once or twice daily. […] Harvested red blood cells (infected) were lysed by incubation in 0.1% (wt/vol) saponin on ice for 10 min with gentle agitation. Free parasites were harvested by centrifugation (2,800 × g, 10 min, 4°C) and washed 3 times in wash buffer (WB; 100 mM potassium acetate, 2.5 mM magnesium acetate, 45 mM HEPES [pH 7.4], 250 mM sucrose, 2 mM dithiothreitol, and 15 μM leupeptin) to remove lysed red blood cell debris. The resulting pellet was resuspended in 1 volume of WB supplemented with cOmplete EDTA-free protease inhibitor cocktail (Roche; 1 tablet/20 mL) and human RNase A inhibitor (Sigma; 5 U/mL). Parasite lysis was achieved by nitrogen cavitation using a prechilled 45-mL Parr cell disruption vessel (1,500 lb/in^2, 60 min, 4°C). To clarify the lysate, it was centrifuged (10,000 × g, 15 min, 4°C), and the supernatant was collected, transferred into fresh tubes, and centrifuged (30,000 × g, 15 min, 4°C). As a quality assurance step for each lysate, the RNA content of the resulting supernatant was determined using a NanoDrop spectrophotometer (Shimadzu). Supernatants with RNA levels of >250 ng/μL were aliquoted (100 μL), flash frozen in liquid nitrogen, and stored at −80°C.
# CBG99 luciferase = CBG99 luciferase (Pyrophorus plagiophthalamus, UniProt Q7M4K1); experiment: Luciferase counterscreen (false-positive counterscreen); type: biochemical, click beetle
# Description: Hits identified in our primary assay screen were assessed for their potential to interfere with the cbg99 luciferase reporter. For this counterscreen, the master mix containing all the components required for translation (as described above) was incubated for 210 min at 32°C, resulting in the in vitro translation of cbg99 luciferase. The produced luciferase was then incubated with test compounds for 5 min prior to the addition of luciferase reaction buffer. […] Hits from the primary screen were assessed as luciferase inhibitors in 8-point dose-dependent assays ranging from 30 μM to 13.7 nM (1:3 dilutions). Levels of luciferase inhibition were determined relative to the positive control.
# [2] = biological target: human translation (HEK 293F lysate); experiment: Human in vitro translation (HsIVT) assay, HEK 293F lysate, luciferase reporter; type: biochemical; details: weighted mean ± SD of two technical replicates, read-out: IC50 value (μM) HsIVT
# Excerpt: as §1, §2
# FreeStyle human embryonic kidney (HEK) 293F cells (Thermo Fisher Scientific) were grown in 500-mL polycarbonate Erlenmeyer vented flasks (Corning) containing FreeStyle 293 expression medium (Life Technologies) upon reaching a density of approximately 2 × 10^6. Cells were then centrifuged at 1,000 × g for 10 min at 4°C, the medium was discarded, and the resulting pellet was washed once in buffer II containing 20 U of human placental RNase inhibitor (Sigma-Aldrich) and cOmplete EDTA-free inhibitor cocktail (Roche) before being centrifuged at 2,800 × g for 10 min. Clarified HEK cell lysate was obtained in the same way as described for P. falciparum lysate.
# PfIVT and HsIVT reactions (5 μL final volume) were performed in 384-well plates (Corning) containing 50% lysate from cells (either P. falciparum or HEK 293F), 10% amino acid solution (final concentration of 400 μM for each amino acid in 60 mM KOH; biotechrabbit), 10% energy recovery solution (final assay concentrations of 40 mM HEPES [pH 7.4], 1.5 mM ATP, 0.15 mM GTP, […] creatine phosphate, and 40 U/mL creatine phosphokinase), 10% helper solution (final assay concentrations of 200 μM cystine, 2% polyethylene glycol 3000 [PEG 3000], 1 mM spermidine, 0.5 mM folinic acid, and 15 μM leupeptin), 10% supplemental salt solution (22.5 mM HEPES [pH 7.4], 50 mM potassium acetate, 1 mM magnesium acetate, 1 mM DTT, 1 U/mL human placental RNase inhibitor, 0.1 mM leupeptin), and 10% cbg99 luciferase mRNA (3,000 ng/mL). A master mix solution containing all components was prepared on ice prior to assays, and 5 μL was dispensed into wells using an automated Integra VIAFLO 16-channel 12.5-μL pipette.
# [3] = Pandemic Box hits; weighted mean ± SD of two technical replicates; read-out: IC50 value (μM) Counterscreen
# [4] = Pathogen Box hits; weighted mean ± SD of two technical replicates; read-out: IC50 value (μM) Counterscreen
# Sequence of CBG99 luciferase (Q7M4K1 entry or part of it): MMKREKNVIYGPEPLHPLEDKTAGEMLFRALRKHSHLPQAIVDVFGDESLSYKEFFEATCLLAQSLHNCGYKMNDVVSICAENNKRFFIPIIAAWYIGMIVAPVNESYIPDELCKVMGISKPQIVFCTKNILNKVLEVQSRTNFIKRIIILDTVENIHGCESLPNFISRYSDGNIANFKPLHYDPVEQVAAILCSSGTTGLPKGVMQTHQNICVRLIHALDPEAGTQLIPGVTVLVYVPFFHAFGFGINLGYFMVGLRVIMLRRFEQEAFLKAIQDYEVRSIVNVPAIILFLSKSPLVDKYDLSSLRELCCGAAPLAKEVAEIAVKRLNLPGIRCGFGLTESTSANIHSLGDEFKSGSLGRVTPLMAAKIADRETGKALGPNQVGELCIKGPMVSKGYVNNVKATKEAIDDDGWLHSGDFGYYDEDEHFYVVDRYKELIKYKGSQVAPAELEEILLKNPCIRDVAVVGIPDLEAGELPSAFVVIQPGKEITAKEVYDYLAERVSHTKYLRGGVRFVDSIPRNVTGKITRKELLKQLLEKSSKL
Structure (SMILES),IC50 ([1]; Pandemic Box hits),PfIVT inhibition at 30 μM (%) ([1]; Pandemic Box),IC50 (CBG99 luciferase; [3]),IC50 ([2]; Pandemic Box hits),IC50 ([1]; Pathogen Box hits),PfIVT inhibition at 30 μM (%) ([1]; Pathogen Box),IC50 (CBG99 luciferase; [4]),IC50 ([2]; Pathogen Box hits),activity against PfIVT at 100 μM ([1]; 100 μM),IC50 (CBG99 luciferase; read-out: IC50 value (μM) Counterscreen; Pandemic Box hits; weighted mean ± SD of two technical replicates),IC50 (CBG99 luciferase; read-out: IC50 value (μM) Counterscreen; Pathogen Box hits; weighted mean ± SD of two technical replicates)
CC(C)Nc1ncnc2c1cnn2-c1ccc(Cl)cc1 [MMV108465],17 ± 0.8 µM,62.6%,7.6 ± 0.5 µM,23 ± 0.11 µM,–,–,–,–,–,–,–
COc1cc(C2=NCCN2)ccc1-c1cn(-c2cccc(C3=NCCN3)c2)nn1 [MMV688407],–,–,–,–,6 ± 0.09 µM,98.7%,> 30 µM,5.2 ± 0.02 µM,–,–,–
CC(Cc1ccccc1)C(=O)Nc1ccc(Cl)cc1C(=O)O (stereo not drawn) [MMV1579781],8.1 ± 0.09 µM,72.4%,0.5 ± 0.08 µM,> 30 µM,–,–,–,–,–,–,–
COc1cc(C2=NCCN2)ccc1-n1cc(-c2cccc(C3=NCCN3)c2)nn1 [MMV688474],–,–,–,–,16 ± 0.9 µM,78.4%,> 30 µM,14 ± 0.07 µM,–,–,–
Cc1ccc(C(=O)Nc2ccc(S(=O)(=O)O)c3cc(S(=O)(=O)O)cc(S(=O)(=O)O)c23)cc1NC(=O)c1cccc(NC(=O)Nc2cccc(C(=O)Nc3cc(C(=O)Nc4ccc(S(=O)(=O)O)c5cc(S(=O)(=O)O)cc(S(=O)(=O)O)c45)ccc3C)c2)c1 [MMV637953],–,–,–,–,3.1 ± 0.07 µM,78.7%,> 30 µM,> 30 µM,–,–,–
NC[C@H]1O[C@H](O[C@H]2[C@H](O)[C@@H](O[C@H]3O[C@H](CO)[C@@H](O)[C@H](N)[C@H]3O)[C@H](N)C[C@@H]2N)[C@H](N)C[C@@H]1O [MMV002459],29 µM and > 30 µM,87.3%,> 30 µM,22 ± 0.3 µM,–,–,–,–,–,–,–
CCOc1ccc(C(=O)NCCc2ccccc2)cc1 [MMV124656],14 ± 0.9 µM,72.6%,3.8 ± 0.08 µM,17 ± 0.16 µM,–,–,–,–,–,–,–
COc1ccc2nc(C)cc(OCC(=O)Nc3ccccc3OC)c2c1 [MMV687188],–,–,–,–,–,64.9%,> 30 µM,> 30 µM,–,–,–
"CCC[C@@H]1C[C@@H](C(=O)N[C@@H]([C@H]2O[C@H](SC)[C@H](O)[C@@H](O)[C@H]2O)[C@H](C)Cl)N(C)C1 [clindamycin, reference compound]",–,–,–,–,–,–,–,–,not active,–,–
CCCCOC(=O)Nc1cc2[nH]c(C3CCCCC3)nc2cc1N1CCCC1 [MMV687730],–,–,–,–,3.9 ± 0.8 µM,72.4%,> 30 µM,> 30 µM,–,–,–
"CC(=O)Oc1ccccc1C(=O)Nc1ncc([N+](=O)[O-])s1 [MMV688991, nitazoxanide, reference compound]",0.02 ± 0.007 µM,98.3%,–,0.04 ± 0.0003 µM,0.02 ± 0.008 µM,97.0%,–,0.04 ± 0.0003 µM,–,0.04 ± 0.008 µM,0.02 ± 0.008 µM
Clc1cccc(-c2nnc(-c3ccccc3)o2)c1 [MMV141011],> 30 µM,51.8%,10 ± 0.8 µM,> 30 µM,–,–,–,–,–,–,–
